The text below walks through data of patent US5843936A, “Topical administration of azaspiranes to prevent or treat skin conditions associated with hyperproliferation of keratinocytes” (priority 1996, dated 1998).

Where a name gives a salt, the structure may show the parent alone.

Data set [1] is described as follows: In vivo evaluation of efficacy in treating psoriasis. Conditions: moderate to severe psoriasis; documented (cited) procedures. Here is the method: Compounds encompassed by structural formula (I) are evaluated in vivo for their efficacy in treating psoriasis. The methods of the following references are used in the evaluation: Berardesca et al., "Non-invasive Evaluation of Topical Calcipotriol versus Clobetasol in the Treatment of Psoriasis," Acta Derm Venereol (Stokh) 74:302-304 (1994); Elias et al., "A Controlled Trial of Topical Propylthiouracil in the Treatment of Patients with Psoriasis," J. Amer. Acad. Dermatol. 31(3):455-458; and Highton et al., "Calcipotriene Ointment 0.005% for Psoriasis: A Safety and Efficacy Study," J. Amer. Acad. Dermatol. 32(1):67-72 (1995).

Data set [2] concerns human skin microvascular endothelial cells. Briefly: Effect on morphology and growth of endothelial cell cultures. The data set is classed as cell-based. Here is the method: Skin endothelial cells in psoriasis are intimately involved in initiating the inflammatory response. Agents which affect both the binding of T lymphocytes and the hyperproliferation of endothelial cells would be expected to have a major effect in controlling the skin lesions.
In this study, human skin microvascular endothelial cells were isolated both from foreskins removed at circumcision and from skin obtained following a facial cosmetic correction. The endothelial cells were grown in a modified Iscove's medium, and while in the growth phase, the effect of varying concentrations of spirogermanium was studied on both the morphology and the growth of the endothelial cell cultures. Final concentrations of spirogermanium in the growth medium were 1,000, 500, 100, 50, 10, 1.0 and 0.125 μg/ml.

In data set [3] the test system is Human foreskin keratinocytes. Briefly: Mitotic activity of epidermal keratinocytes: inhibition of 3H-TdR incorporation into DNA. The data set is classed as cell-based. Here is the method: The mitotic activity of epidermal keratinocytes is one of the most obvious histological features of the psoriatic lesion. Many cytotoxic drugs used to treat the disease are believed to function by direct inhibition of keratinocyte replication.
Human foreskin keratinocytes were cultured in KGM. When the dishes were approximately 50% covered by cells, SG was added to give final concentrations of 5×10^-5 to 5×10^-9 M. After 3 days, the cells were pulsed with ^3 H-TdR for 4 hours, and incorporation into DNA assayed by conventional means. The inhibition of incorporation in 2 experiments was as follows: […]

The conditions of data set [4]: hydrochloride salt, cited from earlier work.

Consider `C[CH2][Ge]1([CH2]C)[CH2]CC2(CCN(CCCN(C)C)C2)C[CH2]1` [SG], for which the “efficacy in treating psoriasis” value in data set [1] is listed as “effective for treating moderate to severe psoriasis”. Further, the cell death entry in data set [2] (0.125 μg/ml, after 1 week) was “cell death was observed after 1 week”. Further, the endothelial cell morphology result was “vacuolization was observed before desquamation and ultimate cell death” in data set [2] (10 μg/ml); “immediately rounded up and detached from the dish surface” in data set [2] (highest concentrations). Further, in data set [3], the “inhibition of DNA synthesis in keratinocytes (in words)” value was “very potent inhibitor of DNA synthesis in keratinocytes”.
Take `C[CH2][Ge]1([CH2]C)[CH2]CC2(CCN(CCCN(C)C)C2)C[CH2]1` [spirogermanium HCl]: the “solubility in 95% ethanol” value in data set [4] (95% ethanol) is on record as “freely soluble”. Also, the solubility in water result in data set [4] (water) was “freely soluble”.
